# Legend:
# Assay type in all cases: functional
# [1] = system: Escherichia coli; assay: Antibacterial activity against penicillin-susceptible Escherichia coli ATCC 25922 after 24 h by NCCLS broth microdilution method; settings: ATCC 25922, 24 h
# [2] = system: Streptococcus pyogenes; assay: Antibacterial activity against erythromycin-susceptible Streptococcus pyogenes after 24 h by NCCLS broth microdilution method
# [3] = system: Streptococcus pyogenes; assay: Antibacterial activity against erythromycin-resistant Streptococcus pyogenes R1 after 24 h by NCCLS broth microdilution method; settings: R1, 24 h
# [4] = system: Staphylococcus aureus; assay: Antibacterial activity against erythromycin-susceptible Staphylococcus aureus ATCC 25923 after 24 h by NCCLS broth microdilution method; settings: ATCC 25923, 24 h
# [5] = system: Streptococcus pneumoniae; assay: Antibacterial activity against erythromycin-resistant Streptococcus pneumoniae AB11 harboring harboring mef and erm gene after 24 h by NCCLS broth microdilution method; settings: AB11, 24 h
# [6] = system: Staphylococcus aureus; assay: Antibacterial activity against […] Staphylococcus aureus ATCC 29213 after 24 h by NCCLS broth microdilution method; settings: ATCC 29213, 24 h
# [7] = system: Streptococcus pneumoniae; assay: Antibacterial activity against erythromycin-resistant Streptococcus pneumoniae B1 harboring erm gene after 24 h by NCCLS broth microdilution method; settings: B1, 24 h
# [8] = system: Bacillus subtilis; assay: Antibacterial activity against penicillin-susceptible Bacillus subtilis ATCC 9372 after 24 h by NCCLS broth microdilution method; settings: ATCC 9372, 24 h
# [9] = system: Pseudomonas aeruginosa; assay: Antibacterial activity against penicillin-susceptible Pseudomonas aeruginosa ATCC 27853 after 24 h by NCCLS broth microdilution method; settings: ATCC 27853, 24 h
# [10] = system: Streptococcus pneumoniae; assay: Antibacterial activity against erythromycin-resistant Streptococcus pneumoniae A22072 harboring mef gene after 24 h by NCCLS broth microdilution method; settings: A22072, 24 h
Compound,MIC [1] [µg/mL],MIC [2] [µg/mL],MIC [3] [µg/mL],MIC [4] [µg/mL],MIC [5] [µg/mL],MIC [6] [µg/mL],MIC [7] [µg/mL],MIC [8] [µg/mL],MIC [9] [µg/mL],MIC [10] [µg/mL]
CC[C@H]1OC(=O)[C@H](C)C(=O)[C@H](C)[C@@H](O[C@@H]2O[C@H](C)C[C@H](N(C)C)[C@H]2O)[C@](C)(OC)C[C@@H](C)C(=O)[C@H](C)[C@@H](OC(=O)NCCNC(=O)c2cccc(C)c2)[C@]1(C)O,> 128,4,> 128,32,64,128,128,8,> 128,8
CC[C@H]1OC(=O)[C@H](C)[C@@H](O[C@H]2C[C@@](C)(OC)[C@@H](O)[C@H](C)O2)[C@H](C)[C@@H](O[C@@H]2O[C@H](C)C[C@H](N(C)C)[C@H]2O)[C@](C)(OC)C[C@@H](C)C(=O)[C@H](C)[C@@H](O)[C@]1(C)O [CLARITHROMYCIN],64,0.03,> 128,0.25,128,64,> 128,0.25,64,4
CC[C@H]1OC(=O)[C@H](C)C(=O)[C@H](C)[C@@H](O[C@@H]2O[C@H](C)C[C@H](N(C)C)[C@H]2O)[C@](C)(OC)C[C@@H](C)C(=O)[C@H](C)[C@@H](OC(=O)NCCNC(=O)/C=C/c2ccc(O)cc2)[C@]1(C)O,> 128,4,> 128,32,128,32,128,8,128,4
CC[C@H]1OC(=O)[C@H](C)C(=O)[C@H](C)[C@@H](O[C@@H]2O[C@H](C)C[C@H](N(C)C)[C@H]2O)[C@](C)(OC)C[C@@H](C)C(=O)[C@H](C)[C@@H](OC(=O)NCCNC(=O)c2cccc(O)c2)[C@]1(C)O,> 128,2,> 128,128,64,128,128,16,> 128,16
CC[C@H]1OC(=O)[C@H](C)[C@@H](O[C@H]2C[C@@](C)(OC)[C@@H](O)[C@H](C)O2)[C@H](C)[C@@H](O[C@@H]2O[C@H](C)C[C@H](N(C)C)[C@H]2O)[C@](C)(O)C[C@@H](C)CN(C)[C@H](C)[C@@H](O)[C@]1(C)O [AZITHROMYCIN],16,0.03,> 128,0.25,> 128,8,> 128,0.25,16,2
CC[C@H]1OC(=O)[C@H](C)C(=O)[C@H](C)[C@@H](O[C@@H]2O[C@H](C)C[C@H](N(C)C)[C@H]2O)[C@](C)(OC)C[C@@H](C)C(=O)[C@H](C)[C@@H](OC(=O)NCCNC(=O)/C=C/c2ccccc2)[C@]1(C)O,> 128,4,> 128,32,64,128,128,8,> 128,4
CC[C@H]1OC(=O)[C@H](C)C(=O)[C@H](C)[C@@H](O[C@@H]2O[C@H](C)C[C@H](N(C)C)[C@H]2O)[C@](C)(OC)C[C@@H](C)C(=O)[C@H](C)[C@@H](OC(=O)NCCNC(=O)/C=C/c2ccc(Cl)cc2Cl)[C@]1(C)O,128,2,64,8,128,32,128,2,> 128,2
CC[C@H]1OC(=O)[C@H](C)C(=O)[C@H](C)[C@@H](O[C@@H]2O[C@H](C)C[C@H](N(C)C)[C@H]2O)[C@](C)(OC)C[C@@H](C)C(=O)[C@H](C)[C@@H](OC(=O)NCCNC(=O)c2ccc(C)cc2)[C@]1(C)O,> 128,4,> 128,32,64,128,128,2,> 128,2
CC[C@H]1OC(=O)[C@H](C)C(=O)[C@H](C)[C@@H](O[C@@H]2O[C@H](C)C[C@H](N(C)C)[C@H]2O)[C@](C)(OC)C[C@@H](C)C(=O)[C@H](C)[C@@H](OC(=O)NCCNC(=O)c2ccc([N+](=O)[O-])cc2)[C@]1(C)O,> 128,0.25,> 128,16,64,128,128,1,128,1
CC[C@H]1OC(=O)[C@H](C)C(=O)[C@H](C)[C@@H](O[C@@H]2O[C@H](C)C[C@H](N(C)C)[C@H]2O)[C@](C)(OC)C[C@@H](C)C(=O)[C@H](C)[C@@H](OC(=O)NCCNC(=O)c2ccc(Br)cc2)[C@]1(C)O,> 128,2,> 128,8,64,128,128,1,128,1
CC[C@H]1OC(=O)[C@H](C)C(=O)[C@H](C)[C@@H](O[C@@H]2O[C@H](C)C[C@H](N(C)C)[C@H]2O)[C@](C)(OC)C[C@@H](C)C(=O)[C@H](C)[C@@H](OC(=O)NCCNC(=O)c2ccc(OC)cc2)[C@]1(C)O,> 128,2,> 128,32,64,128,128,4,> 128,1
CC[C@H]1OC(=O)[C@H](C)C(=O)[C@H](C)[C@@H](O[C@@H]2O[C@H](C)C[C@H](N(C)C)[C@H]2O)[C@](C)(OC)C[C@@H](C)C(=O)[C@H](C)[C@@H](OC(=O)NCCNC(=O)/C=C/c2cccc3ccccc23)[C@]1(C)O,128,1,128,16,128,32,128,2,> 128,2
CC[C@H]1OC(=O)[C@H](C)C(=O)[C@H](C)[C@@H](O[C@@H]2O[C@H](C)C[C@H](N(C)C)[C@H]2O)[C@](C)(OC)C[C@@H](C)C(=O)[C@H](C)[C@@H](OC(=O)NCCNC(=O)c2ccccc2)[C@]1(C)O,> 128,4,> 128,64,128,128,128,4,> 128,4
CC[C@H]1OC(=O)[C@H](C)C(=O)[C@H](C)[C@@H](O[C@@H]2O[C@H](C)C[C@H](N(C)C)[C@H]2O)[C@](C)(OC)C[C@@H](C)C(=O)[C@H](C)[C@@H](OC(=O)NCCNC(=O)c2ccccc2O)[C@]1(C)O,> 128,4,> 128,32,64,128,128,8,128,4
